Some test systems named below: LOX IMVI melanoma; COLO 205 colon; HT29 colon; SNB-19 CNS; A498 renal; CCRF-CEM leukemia; RXF 393 renal; MDA-MB-231 breast; SN12C renal; SR leukemia.
Holding throughout (experiment): DTP human tumour cell line panel, 48 h

Molecules are shown by their SMILES.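 Briefly, cells in 96-well plates were exposed to five compound concentrations for 48 h, and endpoints were estimated by linear interpolation. GI50: concentration for 50% inhibition of growth. TGI: concentration producing complete growth inhibition.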

One may read the TGI as the concentration giving total growth inhibition. A lower TGI goes with greater sensitivity of the cells. In general, GI50 refers to the concentration that inhibits growth by half.

On to `Cc1cccc(C2=NC(C)(C)C(C)(C)N=C2c2cccc(C)n2)n1`, for which the concentration for total growth inhibition (TGI) with LOX IMVI melanoma, in the test on COLO 205 colon, with HT29 colon, in the test with SNB-19 CNS, in the test on A498 renal and in the test with CCRF-CEM leukemia was more than 100 µM throughout. This compound also yielded a TGI with RXF 393 renal of more than 100 µM.

For the compound `O=C(c1ccccc1)c1ccc2nc(-c3c(Cl)c(Cl)c(Cl)c(Cl)c3C(=O)N/N=C/c3ccccc3)[nH]c2c1`, the TGI in the test on MDA-MB-231 breast was 79.2 µM; in the test on LOX IMVI melanoma, more than 100 µM; in the test with COLO 205 colon it was 39.3 µM; with HT29 colon, more than 100 µM; in the test with SNB-19 CNS, more than 100 µM; in the test on SN12C renal, 60.8 µM. For the same compound, the TGI in the test on CCRF-CEM leukemia was more than 100 µM; in the test on RXF 393 renal, 73.2 µM.

In the case of `COc1ccc(-c2c(N)n(-c3cccc(C(=O)O)c3)c(=O)c3cc([N+](=O)[O-])ccc23)cc1`, the concentration for total growth inhibition (TGI) in the test with LOX IMVI melanoma, with HT29 colon, in the test with SNB-19 CNS, in the test on SR leukemia, in the test with A498 renal and in the test on CCRF-CEM leukemia was more than 100 µM throughout. In the test with RXF 393 renal, this compound gave a concentration for total growth inhibition (TGI) of more than 100 µM.

With `CN(C)Cc1cc(O)c(O)c(CN(C)C)c1`, the TGI with MDA-MB-231 breast, in the test with LOX IMVI melanoma, in the test with COLO 205 colon, in the test with HT29 colon, in the test on SNB-19 CNS and in the test on A498 renal was more than 100 µM throughout. Further, the TGI with SN12C renal was more than 100 µM; in the test with CCRF-CEM leukemia, 61.8 µM; in the test on RXF 393 renal it was more than 100 µM.

As for `Cc1ccc(N2CCc3c(C)c(C#N)c4nc5ccccc5n4c32)cc1`, the TGI in the test on LOX IMVI melanoma, in the test on COLO 205 colon, in the test on HT29 colon, in the test on SNB-19 CNS, with SR leukemia and in the test on SN12C renal was more than 100 µM each time. In addition, the TGI in the test with CCRF-CEM leukemia and in the test on RXF 393 renal was more than 100 µM each time.

As for `C=C1C(=O)OCC2C(C(=O)O)=CC3C(C)C(C)=CC123` (centres undefined), the TGI in the test with LOX IMVI melanoma came to 27.9 µM; in the test with COLO 205 colon, 32.9 µM; in the test with HT29 colon it was 44.4 µM; in the test on SNB-19 CNS, 40.2 µM; in the test on A498 renal it was 18.2 µM; in the test with SN12C renal, 23.6 µM. Besides, the TGI with CCRF-CEM leukemia was found to be 42 µM; with RXF 393 renal it was 17.7 µM.

Take `O=C(NC1CCN(Cc2ccccc2)CC1)c1cc2nc(-c3ccc(Cl)s3)cc(C(F)(F)F)n2n1`: the GI50 was 3.14 µM with HT29 colon; more than 100 µM with SNB-19 CNS; 2.13 µM in the test on SR leukemia; more than 100 µM with SN12C renal; more than 100 µM in the test with CCRF-CEM leukemia; 3.23 µM in the test on RXF 393 renal. Moreover, the TGI with HT29 colon is more than 100 µM; with SNB-19 CNS, more than 100 µM; with SR leukemia, 4.97 µM; in the test on SN12C renal it was more than 100 µM; with CCRF-CEM leukemia, more than 100 µM; in the test with RXF 393 renal it was more than 100 µM.

For the compound `Cc1cccc(NC(=O)C(=O)C(C(=O)c2ccccc2F)C2OC(=O)c3ccccc32)c1Cl` (centres undefined), the TGI in the test with LOX IMVI melanoma was 43.3 µM; with COLO 205 colon it was 38.1 µM; with HT29 colon, more than 100 µM; in the test on SNB-19 CNS, more than 100 µM; with SR leukemia, more than 100 µM; in the test on A498 renal it was more than 100 µM. The concentration for total growth inhibition (TGI) is more than 100 µM in the test with SN12C renal and 83 µM with CCRF-CEM leukemia.

Turning to `CCCCOP1(=O)C=C(C)C(=C(Cl)Cl)C(C)=C1` (centres undefined), the TGI in the test with LOX IMVI melanoma was 33.1 µM; in the test with COLO 205 colon, 8.97 µM; with HT29 colon, 29.9 µM; in the test on SNB-19 CNS it was more than 77.9 µM; in the test on SR leukemia it was 29.9 µM; with SN12C renal, 34.8 µM. For the same compound, the figures for the TGI in the test with CCRF-CEM leukemia and with RXF 393 renal were more than 41.4 µM and 24.4 µM, respectively.

Take `CSC1=C(C#N)C(=O)N(c2ccc(C)cc2)C(=S)C1C#N` (centres undefined): the TGI in the test with MDA-MB-231 breast, in the test on LOX IMVI melanoma, in the test on COLO 205 colon, with HT29 colon, in the test on SNB-19 CNS and in the test with A498 renal was more than 100 µM throughout. The TGI in the test on SN12C renal, with CCRF-CEM leukemia and in the test with RXF 393 renal was more than 100 µM each time.

Turning to `O=[Se](=O)c1ccccc1.O=[Se](=O)c1ccccc1.[Cu]`, the GI50 was 7.65 µM in the test with LOX IMVI melanoma; 18.5 µM in the test with COLO 205 colon; 17.2 µM in the test on HT29 colon; 17.4 µM in the test on SNB-19 CNS; 20.1 µM in the test on A498 renal; 15.8 µM in the test with SN12C renal. The GI50 in the test on CCRF-CEM leukemia was 7.98 µM; with RXF 393 renal it was 15.3 µM. Moreover, the TGI with LOX IMVI melanoma was determined as 19.5 µM; with COLO 205 colon, 35.4 µM; in the test with HT29 colon it was 39.2 µM; in the test on SNB-19 CNS it was 31.3 µM; in the test with A498 renal, 38 µM; in the test with SN12C renal it was 29.5 µM. For the same compound, the figures for the total growth inhibition concentration (TGI) in the test on CCRF-CEM leukemia and in the test on RXF 393 renal were 62.7 µM and 29.2 µM, respectively.

With `COc1ccc2c(c1)n([O-])c(C#N)c(N1CCN(c3ccc([N+](=O)[O-])cc3)CC1)[n+]2=O`, the TGI with MDA-MB-231 breast is more than 100 µM; in the test with LOX IMVI melanoma it was more than 28.8 µM; in the test with HT29 colon it was more than 100 µM; with SNB-19 CNS, more than 100 µM; in the test on SN12C renal, more than 100 µM; in the test with CCRF-CEM leukemia, more than 100 µM. The compound further showed a TGI in the test with RXF 393 renal of 41.8 µM.

In the case of `C=C(C)C(=O)[C@@]12C(=O)[C@@H](C)CC[C@H]1[C@H](C)C[C@@H]2C=C(C)C`, the TGI with MDA-MB-231 breast was 51.3 µM; with LOX IMVI melanoma it was 37 µM; in the test with COLO 205 colon, 41.5 µM; in the test on HT29 colon, 34.8 µM; with SNB-19 CNS it was 32.5 µM; in the test with A498 renal it was more than 100 µM. Further, the results for the TGI in the test with SN12C renal and in the test on CCRF-CEM leukemia were 40.7 µM and more than 100 µM, respectively.

Take `C=C(CC[C@@H](C(=O)O)[C@H]1[C@H](O)C[C@@]2(C)C3=CC[C@@H](C(=C)C)[C@](C)(CCC(=O)O)C3=CC[C@]12C)C(C)C`: the TGI with MDA-MB-231 breast worked out at 40.7 µM; with LOX IMVI melanoma, 38.4 µM; in the test with COLO 205 colon, 44.3 µM; with HT29 colon it was 32.8 µM; in the test with SNB-19 CNS it was 32.9 µM; in the test on A498 renal, 38.8 µM. Moreover, the TGI in the test on SN12C renal was 31.9 µM; in the test with CCRF-CEM leukemia, more than 100 µM; in the test with RXF 393 renal it was 34.5 µM.

These data come from PubChem BioAssay (NCI).
